According to US20250170102A1, “PHARMACEUTICAL COMPOSITION FOR INHIBITING FIBROSIS IN ORGANS” (NAGASAKI UNIVERSITY, priority 2022, published 2025):

Tests used:
[1] = tested on: human hepatic stellate cells (HSCs); assay: Ex vivo hydrostatic pressure loading test in human HSCs; format: cell-based; settings: 10 nM losartan, 50 mmHg hydrostatic pressure 24 hours
Method: Primary human HSCs were purchased from ScienCell Research Laboratories. Cells were expanded by using stellate cell medium (ScienCell Research Laboratories) in a humidified incubator under 5% CO2 and 95% air at 37° C. The third passaged cells were used for the following experiments. A pneumatic pressurizing system (Strex. Inc) was used to induce hydrostatic pressure. Briefly, HSCs were seeded in 60-mm diameter culture dishes (5×10^4 cells/dish) and 4-well culture chamber slides (2×10^4 cells/well). Cells were incubated for 3 days to form about 70% confluent, and then half of the culture dishes and slides were randomly selected to be loaded by 50 mmHg hydrostatic pressure for 24 hours, with or without the addition of 10 nM losartan in medium. The inventors used 50 mmHg for experiments based on their preliminary experiments and a previous report (Yoshino et al., Commun Biol 3:152, 2020, Chen et al., Int J Biol Sci 15:2509-2521, 2019). As controls, non-hydrostatic pressure-loaded groups were provided for each of Losartan addition group and non-Losartan addition group. RT-qPCR was performed to evaluate the expression of RHOA, ROCK1, ROCK2, ACTA2, TGFB1, and COL1A1. Briefly, total RNA was isolated from HSCs using Quick-RNA MicoroPrep Kit, and 1.25 μg of RNA was reverse-transcribed using SuperScript VILO cDNA Synthesis Kit (Thermo Fisher Scientific). Quantitative PCR was carried out with SYBR Green real-time PCR Master Mix (Toyobo). The reactions were performed on a CFX96 real-time PCR System (BIO-RAD). The primer sequences are shown below. GAPDH was used for normalization. HSCs were fixed in 4% paraformaldehyde before blocked by 10% bovine serum albumin. After overnight incubation with the primary antibodies, cells were incubated with secondary antibodies for 1 hour at room temperature, and then mounted with medium containing DAPI. F-actin fibers were stained with TRITC-conjugated phalloidin in mounting medium. Immunofluorescences of stained cells were detected using a fluorescence microscope (FV10i, Olympus). For each staining, 10 images were taken from randomly selected fields at 60× magnification, and the mean fluorescence intensity was measured by ImageJ software. Statistical analysis was performed in the same manner as in Example 1.

[2] = tested on: liver fibrosis caused by non-alcoholic steatohepatitis; settings: rats; reported in non-patent literature 4; cited from earlier work
[3] = tested on: partial inferior vena cava ligation model mice (liver fibrosis); assay: Partial inferior vena cava ligation model mice with low-dose losartan treatment; format: in vivo, C57BL/6 mice
From the text: C57BL/6 mice (10-week-old, CLEA) were used. All animal experiments were approved by the Institutional Animal Care and Use Committee of Nagasaki University, and carried out in accordance with the institutional guidelines.
IVC was separated and a small tube (0.9 mm diameter) was placed along with the anterior surface of IVC ((B) in FIG. 1). The tube was tightly ligated together with the IVC ((C) in FIG. 1), and immediately after that, the tube was gently removed ((D) in FIG. 1). The abdomen was then closed with a suture of the peritoneal muscle/fascia followed by closure of the skin. Removing the 0.9 mm diameter tube from IVC ligation was expected to reduce the cross-sectional area of IVC by about 80% based on Simonetto et al.
After all procedures, mice were divided into Losartan group (n=6), IVCL group (n=6) and Sham group (n=6). Losartan group was given losartan (FUJIFILM Wako
Pure Chemical Corporation) in their drinking water at a final concentration of 2.3 mg/L, which providing an estimated daily dose of 0.5 mg/kg. IVCL group was given drinking water without addition of any drug. Treatment was continued until the cessation of the experiments. Sham group received a sham operation including all above steps with the exception of partial IVC ligation, and was given drinking water without addition of any drug.
Mice were euthanized 8 weeks postoperatively. Prior to sacrifice, the body weight was measured, and whole blood was collected from IVC and serum was separated. The levels of serum ALT and AST were measured. The suprahepatic IVC was then transected and the liver was perfused with PBS through the portal vein to remove circulating blood and fibrinogen. The spleen and liver were harvested and weighed, and the spleen/body and liver/body weight ratios were calculated. Liver tissues were fixed in 4% paraformaldehyde and embedded into paraffin block. Tissue sections of about 5 um thickness were used for histological analysis.
Liver tissue sections were deparaffinized and rehydrated. Masson's trichrome staining was performed using Trichrome Stain (Masson) Kit (Sigma-Aldrich) according to the manufacturer's instructions, and then observed under an optical microscope (IX71, Olympus).
Immunohistochemistry analysis on the liver tissues was performed to understand the relevant mechanism. Briefly, liver tissue sections were blocked with 10% bovine serum albumin, and then incubated with primary antibodies (Table 1) overnight at 4°° C., followed by incubation with secondary antibodies (Table 2) for 1 hour at room temperature in the dark. Sections were then mounted with medium containing DAPI. Apoptotic cells were detected by the usage of TUNEL staining kit (Abcam, #ab66108) according to the manufacturer's instructions. Briefly, sections were incubated with DNA labeling solution at 37° C. for 60 min, followed by the addition of PI/RNase A solution for 30 min. Immunofluorescences of stained liver tissues were detected using a fluorescence microscope (FV10i, Olympus). For each staining, at least 10 images were taken from randomly selected fields at 60× magnification, and the mean fluorescence intensity was measured by ImageJ software.
All the results were presented as mean±SD. Statistical significance was determined by one-way analysis of variance (ANOVA) followed by Turkey's test. P value <0.05 was accepted as significant. GraphPad Prism 8 software was used for statistical analysis.

[4] = tested on: UUO-induced renal fibrosis model mice; assay: Unilateral ureteral obstruction (UUO)-induced renal fibrosis model mice with losartan treatment; format: in vivo, C57BL/6 mice; settings: for body weight: prior to UUO surgery and 1 and 2 weeks post-surgery, among all groups; for level of BUN in serum / level of CRE in serum / swelling of the left kidneys (hydronephrosis) / fibrosis area of kidney (Masson's trichrome staining): 2 weeks after UUO surgery; for level of BUN in serum / level of CRE in serum: compared to control group; for swelling of the left kidneys (hydronephrosis): versus control group; for fibrosis area of kidney (Masson's trichrome staining): versus left kidney of control group (UUO)
From the text: C57BL/6 mice (8-week-old, CLEA) were used. The abdomen of mouse was opened under general anesthesia and the left ureter was ligated. The right ureter was not ligated and the right kidney served as a control. The surgical wound was then closed with a single-layer suture of the peritoneum, muscular layer and skin followed by closure of the surgical wound. UUO-induced renal fibrosis model is known to manifest the symptoms of hydronephrosis in the ligated kidney and then develop interstitial fibrosis caused by interstitial deposition of type IV collagen as well as apoptosis of tubular cells at day 3 post-UUO surgery. Post-UUO surgery mice were divided into three groups: low-dose losartan group (1 mg/kg, n=3), high-dose losartan group (3 mg/kg, n=3) and no losartan administration group (n=3). Low-dose losartan group was given losartan (FUJIFILM Wako Pure Chemical Corporation) in their drinking water at a final concentration of 4.6 mg/L, which providing an estimated daily dose of 1 mg/kg. High-dose losartan group was given losartan in their drinking water at a final concentration of 13.8 mg/L, which providing an estimated daily dose of 3 mg/kg. No losartan administration group was given drinking water without addition of losartan. Body weight was measured prior to UUO surgery and 1 and 2 weeks post-surgery. Mice were euthanized 2 weeks post-surgery. Prior to sacrifice, whole blood was collected from IVC and serum was separated. The levels of serum BUN and CRE were measured. The left and right kidneys were then harvested and photographed. Kidneys were fixed in 4% paraformaldehyde and embedded into paraffin block. Tissue sections of about 5 µm thickness were used for histological analysis. (3) Masson's trichrome staining and Hematoxylin and Eosin staining Tissue sections were deparaffinized and rehydrated. Masson's trichrome staining was performed using Trichrome Stain (Masson) Kit (Sigma-Aldrich) according to the manufacturer's instructions. Hematoxylin and Eosin (HE) staining was performed by a conventional method. Tissue specimens were observed under with an optical microscope (IX71, Olympus). Statistical analysis was performed in the same manner as in Example 1.

[5] = tested on: acute lung injury caused by mechanical stimulation; settings: reported in non-patent literature 3; cited from earlier work
[6] = compared to pressure-loaded group without losartan
[7] = losartan 0.5 mg/kg/day in drinking water, 8 weeks after partial IVC ligation, among Sham, IVCL and Losartan groups
[8] = losartan 0.5 mg/kg/day in drinking water, 8 weeks after partial IVC ligation, compared with Sham group
[9] = losartan 0.5 mg/kg/day, 8 weeks, compared to IVCL group
[10] = losartan 0.5 mg/kg/day, 8 weeks, versus upregulation in IVCL group

CCCCc1nc(Cl)c(CO)n1Cc1ccc(-c2ccccc2-c2nn[nH]n2)cc1 [losartan]
expression of ROCK2 (immunohistochemistry) [1]: no significant change
expression of ROCK2 gene (RT-qPCR) [1]: no significant change
formation of actin stress fibers (phalloidin staining for F-actin) [1]: effectively reduced
expression of ACTA2 gene (RT-qPCR) [1, 6]: significantly decreased
expression of AT1R gene (RT-qPCR) [1, 6]: significantly decreased
expression of AT1R in the cytoplasm (immunohistochemistry) [1, 6]: significantly decreased
expression of AT1R in the nucleus (immunohistochemistry) [1, 6]: significantly decreased
expression of COL1A1 gene (RT-qPCR) [1, 6]: significantly decreased
expression of ROCK1 (immunohistochemistry) [1, 6]: significantly decreased
expression of ROCK1 gene (RT-qPCR) [1, 6]: significantly decreased
expression of RhoA (immunohistochemistry) [1, 6]: significantly decreased
expression of RhoA gene (RT-qPCR) [1, 6]: significantly decreased
expression of TGF-β1 (immunohistochemistry) [1, 6]: significantly decreased
expression of TGFB1 gene (RT-qPCR) [1, 6]: significantly decreased
expression of p-MLC2 (immunohistochemistry) [1, 6]: significantly decreased
expression of type 1 collagen (immunohistochemistry) [1, 6]: significantly decreased
expression of α-SMA (immunohistochemistry) [1, 6]: significantly decreased
liver fibrosis caused by non-alcoholic steatohepatitis [2]: mitigates
level of ALT in serum [3, 7]: not significantly different
level of AST in serum [3, 7]: not significantly different
liver/body weight ratio [3, 8]: kept at comparable levels
spleen/body weight ratio [3, 8]: kept at comparable levels
expression of ROCK2 in liver tissue (immunostaining) ([3]; losartan 0.5 mg/kg/day, 8 weeks, all groups): not substantially changed
changes in the lobular architecture of liver [3, 9]: effectively alleviated
fibrotic area of liver tissue (Masson's trichrome staining) [3, 9]: significantly decreased
percentage of apoptotic cells in liver tissue (TUNEL staining) ([3]; losartan 0.5 mg/kg/day, 8 weeks, compared to Sham group): not significantly changed
expression of α-SMA in liver tissue (immunostaining signal intensity) ([3]; losartan 0.5 mg/kg/day, 8 weeks, in contrast to IVCL group): significantly reduced
expression of ROCK1 in liver tissue (immunostaining) [3, 10]: significantly reduced
expression of RhoA in liver tissue (immunostaining) [3, 10]: significantly reduced
expression of p-MLC2 in liver tissue (immunostaining) [3, 10]: effectively attenuated
body weight ([4]; high-dose losartan 3 mg/kg/day in drinking water): No significant change
level of BUN in serum ([4]; high-dose losartan 3 mg/kg/day): significantly decreased
level of CRE in serum ([4]; high-dose losartan 3 mg/kg/day): significantly decreased
swelling of the left kidneys (hydronephrosis) ([4]; high-dose losartan 3 mg/kg/day): significantly inhibited
fibrosis area of kidney (Masson's trichrome staining) ([4]; high-dose losartan 3 mg/kg/day): significant decreasing
body weight ([4]; low-dose losartan 1 mg/kg/day in drinking water): No significant change
level of BUN in serum ([4]; low-dose losartan 1 mg/kg/day): significantly decreased
level of CRE in serum ([4]; low-dose losartan 1 mg/kg/day): significantly decreased
swelling of the left kidneys (hydronephrosis) ([4]; low-dose losartan 1 mg/kg/day): significantly inhibited
fibrosis area of kidney (Masson's trichrome staining) ([4]; low-dose losartan 1 mg/kg/day): significant decreasing
acute lung injury caused by mechanical stimulation [5]: effectively relieves
